{
  "source": "patent US20260256716A1",
  "about": "“COMPOSITIONS AND METHODS OF USE THEREOF” (Board of Supervisors of Louisiana State University and …, priority 2023, published 2026)",
  "key": {"ARPE-19 cells [1]": {"system": "ARPE-19 cells", "assay": "ARPE-19 proliferation (DAPI cell number, fold change in growth)", "assay_type": "cell-based, human", "conditions": "ARPE-19, 72 h, R-DOI 0.1 nM or 1 nM", "protocol": "Specific 5-HT2A Receptor Activation via Model Phenethylamines, like R-DOI. […] ARPE-19 cells were plated in nutrient rich media, DMEM, containing 7% dialyzed FCS and then starved in DMEM media containing 0.5% dialyzed FCS. Cells were then changed to 7% dialyzed FCS DMEM media containing physiolocial relevant levels of serotonin at varying concentrations and grown for 72-hours. Cell numbers were determined through DNA staining with DAPI and fold change in growth was determined from baseline readings at 24-hours. To assess if agonists of the 5HT2A receptor could enhance cell health and proliferation specifically through the 5-HT2A receptor, the model 5-HT2A receptor agonist, R-DOI was added at either 0.1 nM or 1 nM. […] Also, included is a summary of physiological serotonin and 5-HT2A receptor agonist/antagonist outcomes on cellular proliferation. This increase in proliferation promotes the formation of a compact RPE-monolayer which is important for maintaining a healthy blood-retinal barrier and can occur with low dose administration of 5-HT2A receptor agonists.\nARPE-19 cells were plated in nutrient rich media, DMEM, containing 7% dialyzed FCS and then starved in DMEM media containing 0.5% dialyzed FCS. Cells were then changed to 7% dialyzed FCS DMEM media containing physiological relevant levels of serotonin at varying concentrations and grown for 72-hours. Cell numbers were determined through DNA staining with DAPI and fold change in growth was determined from baseline readings at 24-hours. To assess if serotonin enhances cell health and proliferation specifically through the 5-HT2A receptor, the 5-HT2A receptor antagonist, M100,907 at 10 nM was included during serotonin induction."}, "intracellular H2O2": {"system": "intracellular H2O2", "assay": "Intracellular H2O2 (ROS-Glo bioluminescence) in ARPE-19 cells at diabetic glucose concentrations", "assay_type": "cell-based, human", "conditions": "10 nM; glucose 5, 10, 20, 30 mM; 72 hours", "protocol": "Hyperglycemic conditions induce increased disease promoting ROS production that is abrogated by low nM concentrations of the Representative 5-HT2A Receptor Agonist. R-DOI Returning to Base-line Homeostatic Levels. ARPE-19 cells were plated using physiological media (HPLM; 7% FCS) overnight prior to starvation (HPLM 0.5% FCS) overnight with or without 10 nM R-DOI. Cells were then replaced with HPLM 7% FCS containing a range of glucose concentrations spanning diabetic blood glucose levels (5 mM, 10 mM, 20 mM, and 30 mM) with or without the addition of 10 nM R-DOI for 72-hours. Cells were then lysed to quantify intracellular H2O2 levels via bioluminescence as described above. Low dose 5-HT2A agonists abrogate the hyperglycemic induced induction od ROS that is pathophysiological for development and progression of neurodegenerative and ocular age-related diseases, especially within diabetic patients, or patients that have conditions that induce increased levels of blood glucose. Pathological glucose concentrations increase intracellular H2O2. 5-HT2AR agonism alleviates glucose-induced intracellular H2O2 at diabetic glucose concentrations.\nEvaluating intracellular reactive oxygen species (ROS) levels (FIG. 67). Promega's ROS-Glo H2O2 assay enables researchers to evaluate intracellular ROS levels. […]"}, "AMP kinase": {"system": "AMP kinase", "assay": "AMP kinase activation in treated cells", "assay_type": "cell-based", "conditions": "low nM concentrations"}, "ARPE cells [2]": {"system": "ARPE cells", "assay": "Mitochondrial biomass and potential (MitoTracker staining / flow cytometry) in ARPE cells", "assay_type": "cell-based, human", "conditions": "10 fold dilutions 100 nM to 0.001 nM; 48 hours", "protocol": "Representative 5-HT2A Receptor Agonist, R-DOI, Increases Mitochondrial Biogenesis and Function at low nM to sub nanomolar concentrations thereby reversing adverse processes that underlie development and progression of the Pathophysiology of Age-Associated Ocular and Neurodegenerative Diseases. ARPE cells were plated and treated with 10 fold dilutions of R-DOI from 100 nM to 0.001 nM. 48 hours post treatment, mitochondrial biomass was assessed either by staining for mitochondria using mitotracker (green, left panel) or via flow cytometry using MitoTracker Red CMOXROS that assesses both mitochondrial biomass and mitochondrial potential."}, "ARPE cells [3]": {"system": "ARPE cells", "assay": "Mitochondrial function and ATP production by Seahorse in ARPE cells", "assay_type": "cell-based, human", "conditions": "10 fold dilutions 100 nM to 0.001 nM; 48 hours", "protocol": "Representative 5-HT2A Receptor Agonist, R-DOI Increases Mitochondrial Function And ATP Production at low nM and sub nanomolar concentrations thereby reversing adverse processes that underlie development and progression of the Pathophysiology of Age-Associated Ocular and Neurodegenerative Diseases. ARPE cells were plated and treated with 10 fold dilutions of R-DOI from 100 nM to 0.001 nM. 48 hours post treatment, mitochondrial function and ATP production was assessed by Seashorse."}, "ARPE-19 cells [4]": {"system": "ARPE-19 cells", "assay": "ATP luciferase assay in ARPE-19 cells", "assay_type": "cell-based, human"}, "ARPE cells [5]": {"system": "ARPE cells", "assay": "Blue light induced mitochondrial fragmentation in ARPE cells (mitotracker green)", "assay_type": "cell-based, human", "conditions": "100 nM; 48 hours; hyperglycemic conditions; blue light 400 nm", "protocol": "ARPE cells grown under hyperglycemic conditions were plated and mock treated or treated with R-DOI or 2C-iBu at 100 nM. 48 hours post treatment, mitochondria in live cells were visualized by staining mitochondria with mitotracker green (green). Once stained, live ARPE cells were exposed to focused blue light at 400 nm and the ability of drugs to protect against blue light damage-induced mitochondrial fragmentation was assessed."}, "ARPE cells [6]": {"system": "ARPE cells", "assay": "Cumene hydroperoxide induced lipid peroxidation in ARPE cells (BODIPY)", "assay_type": "cell-based, human", "conditions": "100 nM and 1 nM overnight; 100 uM cumene hydroperoxide", "protocol": "Representative 5-HT2A Receptor Agonist, R-DOI, Decreases Oxidative stress induced lipid peroxidation at low nM concentrations thereby reversing adverse processes that underlie development and progression of the Pathophysiology of Age-Associated Ocular and Neurodegenerative Diseases. ARPE cells were plated and mock treated or treated with the 5HT2A agonist R-DOI at 100 nM or 1 nM concentrations. Following an overnight incubation, live ARPE cells were labeled with an lipid peroxidation indicator dye BODIPY that changes fluorescence from red to green as it becomes oxidized. Cells were subsequently treated with 100 uM cumene hydroperoxide to induce lipid peroxidation and cellular oxidative stress and imaged in the red and green channels to assess the protective effects of 5HT2A agonists on lipid peroxidation. In the absence of 5HT2A agonists, there was a clear increase in green fluorescence present following treatment with cumene hydroperoxide."}},
  "data": [
    {"smiles": "COc1cc(C[C@@H](C)N)c(OC)cc1I", "note": "(single isomer, unassigned) [R-DOI, R enantiomer 2,5-Dimethoxy-4-iodoamphetamine]", "values": [
      {"measurement": "proliferation of RPE (fold change in growth)", "setting": "ARPE-19 cells [1]", "value": "Stimulate and Restore Healthy Proliferation of RPE"},
      {"measurement": "hyperglycemia induced ROS production (intracellular H2O2)", "setting": "intracellular H2O2", "value": "abrogated"},
      {"measurement": "AMP kinase activation", "setting": "AMP kinase", "value": "activation of AMP kinase"},
      {"measurement": "mitochondrial biomass and mitochondrial potential", "setting": "ARPE cells [2]", "value": "increased both mitochondrial biomass and potential"},
      {"measurement": "ATP production and mitochondrial respiration", "setting": "ARPE cells [3]", "value": "increased ATP production and mitochondrial respiration"},
      {"measurement": "ATP levels relative to Mock treated ARPE-19 cells", "setting": "ARPE-19 cells [4]; 10 fold dilutions 100 nM to 0.1 nM", "value": "Increase Mitochondrial Function And ATP Production"},
      {"measurement": "production of ATP", "setting": "ARPE-19 cells [4]; ARPE WT cells, 24 h after administration", "value": "enhanced production of ATP"},
      {"measurement": "blue light induced mitochondrial fragmentation/damage", "setting": "ARPE cells [5]", "value": "Inhibit Blue Light and Oxidative Stress Induced Mitochondrial Fragmentation/Damage"},
      {"measurement": "oxidative stress induced lipid peroxidation", "setting": "ARPE cells [6]", "value": "abrogated lipid peroxidation"}
    ]}
  ]
}
